Assay results: patent US9682140B2, “Ezrin-derived peptides and pharmaceutical compositions thereof” (priority 2016, dated 2017)

Experiments:
[1] = system: encephalomyocarditis virus; assay: Antiviral (interferon-inducing) activity in culture of HELA human cervical carcinoma cell line; format: cell-based; details: 100 LD50 of encephalomyocarditis virus
Protocol: (§1) In this methodology in vitro, we pretreated different types of cells with the studied peptides, and then the cells were infected with a dose of 100 LD50 of encephalomyocarditis virus. 24 hours after the infection the cytopathic effect of the virus was assessed in order to evaluate protective activity of the tested compound if the latter has the ability to bring the cells to a state, resistant to the virus, which is deadly for cells.
(§2) The lower is the concentration which protects 50% of cells from death due to the infection at a dose of 100 LD50 of encephalomyocarditis virus, the higher is antiviral (interferon-inducing) activity of the tested compound.
(§3) The peptides were dissolved in distilled water, and then sterilized by passing through filters with pore size 0.2 μm to obtain the stock solutions of 1-2 mg/ml. On day 0, cells were seeded in the wells of 96-well plate in complete culture medium with cell density of 200 thousands of cells in 1 ml. On day 1, serial dilutions of each tested sample were prepared (24 serial dilutions in increments of 2) in triplets in the wells of the 96-well plate. On day 3, all the cultures were infected with a dose of 100 TCID50/ml of encephalomyocarditis virus strain “Columbia SK-Col-SK”. Finally, on day 4, cytopathic effect of the virus was assessed by using Leitz inverted microscope in the presence of different concentrations of the tested peptide or in the cultures without peptide (control).
(§4) Antiviral effect of the drug product was assessed based on minimal concentration thereof protecting 50% of the cells from death caused by encephalomyocarditis virus at a dose of 100 TCID50/ml. Interferon titre (U/ml) was calculated as a value, inverse to the maximal dilution of the drug product, which protected 50% of the cells from death caused by encephalomyocarditis virus at a dose of 100 TCID50/ml.
(§5) HELA human cervical carcinoma cell line was obtained from Research Institute of Virology named after Ivanovskiy (Moscow). Complete medium for cells culturing, peptides and compositions thereof, as well as assessment method for their antiviral (interferon-inducing) activity were the same as described in the Example 5.

[2] = system: encephalomyocarditis virus; assay: Antiviral (interferon-inducing) activity in culture of PLC/PRF/5 (Alexander) human hepatoma cell line; format: cell-based, encephalomyocarditis virus strain Columbia SK-Col-SK; details: for Antiviral efficacy (minimal compound concentration protecting 50% of the cells from death) / Titre of induced interferon (inverse to the maximal dilution protecting 50% of the cells): PLC/PRF/5 (Alexander) human hepatoma cells, 100 LD50 of encephalomyocarditis virus
Protocol: as §1, §2
PLC/PRF/5 (Alexander) human hepatoma cell line was obtained from Research Institute of Virology named after Ivanovskiy (Moscow). Complete medium for cells culturing was prepared on the basis of MEM Eagle medium supplemented with 10% fetal calf serum (FCS), L-glutamine (300 μg/ml), and penicillin (100 U/ml).
as §3, §4

[3] = system: encephalomyocarditis virus; assay: Antiviral (interferon-inducing) activity in culture of Girardi Heart human epithelial cell line; format: cell-based; details: for Antiviral efficacy (minimal compound concentration protecting 50% of the cells from death) / Titre of induced interferon (inverse to the maximal dilution protecting 50% of the cells): Girardi Heart epithelial cells, 100 LD50 of encephalomyocarditis virus
Protocol: as §1, §2, §3, §4
as §5, with “The culture of Girardi Heart” for “HELA”, “epithelial” for “cervical carcinoma”

[4] = system: MAPK/ERK signaling pathway; assay: Activation of MAPK/ERK signaling pathway in BALB/c mouse fibroblasts (immune blotting of phospho-p44/42 MAPK); format: cell-based
Protocol: Peptide […] (SEQ ID No: 1) was obtained as described in Example 1, BALB/c mouse fibroblast were purchased from American Type Culture Collection and propagated in a complete medium consisting of high glucose DMEM supplemented with 10% fetal calf serum, 1 mM sodium pyruvate, 1:50 MEM non-essential amino acids, 2 mM L-glutamine, 10 μg/ml gentamicin and 50 μM β-mercaptoethanol. Cells were grown in 10 cm culture dishes at 5% CO2 and 37° C. Cell passages were made at the 50-60% confluency. For cell detachment, 0.05% trypsin/EDTA was used with following centrifugation (470×g, 15 min) in 10-fold volume of washing medium containing 10% FCS to quench trypsin. Supernatant was discarded and the cell pellet was suspended in 10 ml of complete culture medium, then cell numbers were counted using hemocytometer before cells were used for experiments.
Fibroblasts were cultured in 8-well culture plates, the examined peptide or cytokine TGF-β1 (positive control) solution, or equivalent volume of culture medium (negative control) were added into respective triplicate cultures. Cells were incubated in presence of the peptide […] SEQ ID No: 1 (10 μg/ml) or TGF-β1, or without any effector compound during 1 or 6 hours at 5% C02 and 37° C. At the time points indicated, cell were harvested, washed twice with PBS and lyzed using the cell extraction buffer in the presence of protease inhibitors during 30 min at 4° C. Extracts were cleared by centrifugation (14,000×g, 10 min, 4° C.). Protein concentration was measured using protein assay reagent (Pierce, 23225). Appropriate dilutions of extracts ([…] protein per a track) were then fractionated in 8% SDS-PAGE and then transferred onto PVDF-membrane (Amersham) for immune blotting. Targeted proteins were detected using antibodies specific to phospho-p44/42 MAPK (Cell Signaling, 4370) and GAPDH (Abcam ab8245). Protein bands were visualized and then measured their intensities using ImageJ soft-ware. Data were expressed as a value (pixels per a band) of ERK1, ERK2 or phospho-ERK1 and phospho-ERK2 normalized to a value of respective GAPDH-bands. Mean values+SD were calculated using the data of 3 independent runs.

[5] = 1 hour after activation, peptide 10 μg/ml, TGF-β1 5 ng/ml, negative control 0.1+0.002
[6] = 1 hour after activation, peptide 10 μg/ml, TGF-β1 5 ng/ml, negative control 0.4+0.01
[7] = 6 hour time point, non-activated cultures 0.1+0.007
[8] = 6 hours after activation, negative control 0.1+0.01

| Substance | Antiviral efficacy (minimal compound concentration protecting 50% of the cells from death) [1] [µg/mL] | Titre of induced interferon (inverse to the maximal dilution protecting 50% of the cells) [1] [U/ml] | Antiviral efficacy (minimal compound concentration protecting 50% of the cells from death) [2] [µg/mL] | Titre of induced interferon (inverse to the maximal dilution protecting 50% of the cells) [2] [U/ml] | Antiviral efficacy (minimal compound concentration protecting 50% of the cells from death) [3] [µg/mL] | Titre of induced interferon (inverse to the maximal dilution protecting 50% of the cells) [3] | phospho-ERK1 normalized value (band intensity normalized to GAPDH) [4, 5] | phospho-ERK2 normalized value (band intensity normalized to GAPDH) [4, 6] | phospho-ERK2 normalized value (band intensity normalized to GAPDH) [4, 7] | phospho-ERK1 normalized value (band intensity normalized to GAPDH) [4, 8] | immunostimulatory activity compared with the activity of HEP-1 peptide ([2]; Table 1, PLC/PRF/5 cells) [times] | immunostimulatory activity compared with the activity of HEP-1 peptide ([3]; Table 3, Girardi Heart cells) |
| --- | --- | --- | --- | --- | --- | --- | --- | --- | --- | --- | --- | --- |
| NH2_Thr-Glu-Lys-Lys-Arg-Arg-Glu-Thr-Val-Glu-Arg-Glu-Lys-Glu_COOH (H-TEKKRRETVEREKE-OH) [HEP-1] | 3.9 | 256 | 3.0 | 320 | 0.0015 | 655 360 U/ml |  |  |  |  |  |  |
| TGF-β1: cytokine TGF-β1 (positive control) |  |  |  |  |  |  | 0.5+0.02 | 1.9+0.1 | 0.35+0.02 | 0.3+0.02 |  |  |
| NH2_Arg-Glu-Thr-Val-Glu-Arg-Glu-Lys-Glu_COOH (H-RETVEREKE-OH) [HP6-14] | 0.49 | 2048 | 0.78 | 1280 | 0.006 | 163 840 U/ml |  |  |  |  |  |  |
| NH2_Gly-Glu-Lys-Lys-Arg-Arg-Glu-Thr-Val-Glu-Arg-Glu-Gly-Gly_COOH (H-GEKKRRETVEREGG-OH) [HP-V2] | 7.8 | 128 | 0.78 | 1280 | 0.0015 | 655 360 U/ml | 0.4+0.02 | 1.3+0.05 | 0.1+0.01 | 0.1+0.006 | 4 | the same |
| NH2_Thr-Glu-Lys-Lys-Arg COOH (H-TEKKR-OH) [HP1-5] | 0.49 | 2048 | 1.6 | 640 | 0.0015 | 655 360 U/ml |  |  |  |  |  |  |
